# Reference: patent EP4603105A1, “PHARMACEUTICAL COMPOSITION CONTAINING CYCLIC COMPOUND HAVING SELECTIVE KRAS INHIBITORY EFFECT AGAINST HRAS AND NRAS” (CHUGAI SEIYAKU KABUSHIKI KAISHA, priority 2022, dated 2024)
# *1 amine or outer side, *2 acyl side, *3 side chain or, on linkers, in order; H or OH if unused. Where a SMILES comes first, the peptide text is derived from it. Bridges are numbered along the chain shown (N, C = ends). [ ]: non-standard residue; d: D form. The star is where a group is joined. hPhe(3,5-F2-4-CF3) = N[C@@H](CCc1cc(F)c(C(F)(F)F)c(F)c1)C(=O)O; hPhe(3-Cl-4-CF3) = N[C@@H](CCc1ccc(C(F)(F)F)c(Cl)c1)C(=O)O; NPrPhe(4-CF3) = CCCN[C@@H](Cc1ccc(C(F)(F)F)cc1)C(=O)O; X49 = Cc1ccc(C[C@@H](C(=O)[*:2])N(CC2CC2)[*:1])cc1; NMeGly(cPent) = CN[C@H](C(=O)O)C1CCCC1; NMeD = CN[C@@H](CC(=O)O)C(=O)O; NMeL = CN[C@@H](CC(C)C)C(=O)O; αMeS = C[C@](N)(CO)C(=O)O; Morpholide = C1CN(*)CCO1; Ac5c = NC1(C(=O)O)CCCC1; Aze = O=C(O)[C@@H]1CCN1; Sar = CNCC(=O)O; tBu = CC(C)(C)*
# Assays:
# [1] = system: human lung cancer strain NCI-H441; format: cell-based
# Method in brief: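 Step one: dispense the test compound in serial DMSO dilutions. Step three: add the reagent and measure […].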
# HRAS wild-type protein = HRAS wild-type protein (Homo sapiens, UniProt P01112); assay: Binding to HRAS by surface plasmon resonance (SPR), KD and KD ratio to KRAS
# HRAS wild-type protein, sequence (P01112 whole entry): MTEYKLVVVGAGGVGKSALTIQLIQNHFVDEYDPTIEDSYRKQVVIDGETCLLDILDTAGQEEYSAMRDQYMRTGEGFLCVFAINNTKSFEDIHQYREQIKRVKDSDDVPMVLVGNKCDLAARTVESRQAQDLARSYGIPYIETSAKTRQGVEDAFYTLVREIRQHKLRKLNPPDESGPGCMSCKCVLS
# Method in brief: (§1)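 Running buffer contained 10 µM GDP and 10 mM MgCl2 to keep RAS in the GDP state, with 4% DMSO at pH 7.4. Compounds were flowed at 100 µL/min in 75 s steps of rising concentration over captured biotin-Avi RAS at 30°C. Sensorgrams were fitted 1:1 for KD.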
# [2] = biological target: GDP-bound NRAS wild-type protein (Homo sapiens, UniProt P01111); assay: Binding to NRAS by surface plasmon resonance (SPR), KD and KD ratio to KRAS
# GDP-bound NRAS wild-type protein, sequence (P01111 whole entry): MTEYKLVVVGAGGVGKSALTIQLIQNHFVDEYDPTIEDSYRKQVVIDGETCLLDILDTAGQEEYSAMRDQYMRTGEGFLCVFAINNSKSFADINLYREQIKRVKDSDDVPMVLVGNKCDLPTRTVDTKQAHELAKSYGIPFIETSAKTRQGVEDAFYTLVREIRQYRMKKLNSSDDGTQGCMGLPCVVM
# Method in brief: as §1
# [3] = ratio of the KD value with respect to HRAS wild-type protein to the KD value with respect to KRAS
# [4] = ratio of the KD value with respect to GDP-bound NRAS wild-type protein to the KD value with respect to KRAS
# [5] = ratio of KD for HRAS wild-type protein to KD for KRAS
# [6] = ratio of KD for GDP-bound NRAS wild-type protein to KD for KRAS
# [7] = ratio of KD with respect to HRAS wild-type protein to KD with respect to KRAS
# [8] = ratio of KD with respect to GDP-bound NRAS wild-type protein to KD with respect to KRAS
Structure (SMILES),IC50 [1],HRAS /KRAS (HRAS wild-type protein; [5]),"NRAS /KRAS [2, 6]",further results
CCO[C@@H]1C[C@H]2C(=O)NC3(CCC3)C(=O)N(C)[C@@H](C3CCCC3)C(=O)N(C)[C@H](C(=O)N3CCOCC3)CC(=O)N(C)[C@@H](C)C(=O)N[C@@H]([C@@H](C)CC)C(=O)N(C)CC(=O)N(C)[C@H]3CCCCN(C3=O)[C@@H](Cc3ccc(C(F)(F)F)cc3)C(=O)N(C)CC(=O)N[C@@H](CCc3cc(F)c(C(F)(F)F)c(F)c3)C(=O)N2C1 [PP0585],6.2 nM,,,"HRAS /KRAS (HRAS wild-type protein; [3]): B (a compound having 3 or more and less than 10 is denoted as B); NRAS /KRAS [2, 4]: B (a compound having 3 or more and less than 10 is denoted as B)"
CCO[C@@H]1C[C@H]2C(=O)NC3(CCC3)C(=O)N(C)[C@@H](C3CCCC3)C(=O)N(C)[C@H](C(=O)N(C)C)CC(=O)N(C)[C@@H](CC)C(=O)N[C@@H]([C@@H](C)CC)C(=O)N(C)CC(=O)N(C)[C@H]3CCCCN(C3=O)[C@@H](Cc3ccc(C(F)(F)F)cc3)C(=O)N(C)CC(=O)N[C@@H](CCc3c(F)c(F)c(C(F)(F)F)c(F)c3F)C(=O)N2C1 [PP0886],14.3 nM,B (a compound having 3 or more and less than 10 is denoted as B),C (A compound having a KD ratio of 0.1 or more and less than 3 is denoted as C),
CCCN(C)C(=O)[C@@H]1CC(=O)N(C)[C@@H](CC(C)C)C(=O)N[C@@H]([C@@H](C)CC)C(=O)N(C)CC(=O)N(C)[C@H]2C/C=C\CCN(C2=O)[C@@H](Cc2ccc(C(F)(F)F)cc2)C(=O)N(C)CC(=O)N[C@@H](CCc2cc(F)c(C(F)(F)F)c(F)c2)C(=O)N2C[C@H](OCC)C[C@H]2C(=O)NC2(CCC2)C(=O)N(C)[C@@H](C2CCCC2)C(=O)N1C [PP1387],15.3 nM,,,"HRAS /KRAS (HRAS wild-type protein; [7]): B (a compound having 3 or more and less than 10 is denoted as B); NRAS /KRAS [2, 8]: A (a compound having 10 or more and less than 20 is denoted as A)"
CCC[C@H]1C(=O)N[C@@H]([C@@H](C)CC)C(=O)N(C)CC(=O)N(C)[C@H]2C/C=C\CCN(C2=O)[C@@H](Cc2ccc(C(F)(F)F)cc2)C(=O)N(C)CC(=O)N[C@@H](CCc2cc(Cl)c3sccc3c2)C(=O)N2C[C@H](OCC)C[C@H]2C(=O)NC2(CC(C)(C)C2)C(=O)N(C)[C@@H](C(CC)CC)C(=O)N(C)[C@H](C(=O)N(C)C)CC(=O)N1C [PP2888],14.2 nM,A (a compound having 10 or more and less than 20 is denoted as A),AA (a compound having 20 or more is denoted as AA),
CC[C@H](C)[C@@H]1NC(=O)[C@@H]2CCCCCc3ccc(cc3)C[C@@H](C(=O)N(C)CC(=O)N[C@@H](CCc3ccc(C(F)(F)F)c(OC)c3)C(=O)N3CC4(CC4)C[C@H]3C(=O)NC3(CC(C)(C)C3)C(=O)N(C)[C@@H](C3CCCC3)C(=O)N(C)[C@H](C(=O)N(C)C)CC(=O)N2C)N2CC/C=C\C[C@@H](C2=O)N(C)C(=O)CN(C)C1=O [PP3074],2.4 nM,A (a compound having 10 or more and less than 20 is denoted as A),A (a compound having 10 or more and less than 20 is denoted as A),
CCO[C@@H]1C[C@H]2C(=O)NC3(CC(C)(C)C3)C(=O)N(C)[C@@H](C(CC)CC)C(=O)N(C)[C@H](C(=O)N(C)C)CC(=O)N(C)[C@@H](C)C(=O)N[C@@H]([C@@H](C)CC)C(=O)N(C)CC(=O)N(C)[C@H]3C/C=C\CCN(C3=O)[C@@H](Cc3ccc(C)cc3)C(=O)N(C)CC(=O)N[C@@H](CCc3ccc(Cl)c(Cl)c3)C(=O)N2C1 [PP2186],33.7 nM,,,"HRAS /KRAS (HRAS wild-type protein; [3]): A (a compound having 10 or more and less than 20 is denoted as A); NRAS /KRAS [2, 4]: AA (a compound having 20 or more is denoted as AA)"
CCO[C@@H]1C[C@H]2C(=O)NC3(CCC3)C(=O)N(C)[C@@H](C3CCCC3)C(=O)N(C)[C@H](C(=O)N(C)C)CC(=O)N(C)[C@@H](CC3CC3)C(=O)N[C@@H]([C@@H](C)CC)C(=O)N(C)CC(=O)N(C)[C@H]3C/C=C\CCN(C3=O)[C@@H](Cc3ccc(C(F)(F)F)cc3)C(=O)N(C)CC(=O)N[C@@H](CCc3cc(F)c(C(F)(F)F)c(F)c3)C(=O)N2C1 [PP1111],13 nM,A (a compound having 10 or more and less than 20 is denoted as A),A (a compound having 10 or more and less than 20 is denoted as A),
CCO[C@@H]1C[C@H]2C(=O)NC3(CC(C)(C)C3)C(=O)N(C)[C@@H](C(CC)CC)C(=O)N(C)[C@H](C(=O)N(C)C)CC(=O)N(C)[C@@H](C)C(=O)N[C@@H]([C@@H](C)CC)C(=O)N(C)CC(=O)N(C)[C@H]3C/C=C\CCN(C3=O)[C@@H](Cc3ccc(C)cc3)C(=O)N(C)CC(=O)N[C@@H](CCc3cc(F)c(C(F)(F)F)c(F)c3)C(=O)N2C1 [PP2143],6.6 nM,,,"HRAS /KRAS (HRAS wild-type protein; [3]): A (a compound having 10 or more and less than 20 is denoted as A); NRAS /KRAS [2, 4]: A (a compound having 10 or more and less than 20 is denoted as A)"
"CCCN1C(=O)[C@@H]2CCN2C(=O)CN(C)C(=O)[C@H]([C@@H](C)CC)NC(=O)[C@H](CC(C)C)N(C)C(=O)C[C@@H](C(=O)N2CCOCC2)N(C)C(=O)[C@H](C2CCCC2)N(C)C(=O)[C@](C)(COC(C)(C)C)NC(=O)[C@@H]2CCCN2C(=O)[C@H](CCc2cc(F)c(C(F)(F)F)c(F)c2)NC(=O)CN(C)C(=O)[C@@H]1Cc1ccc(C(F)(F)F)cc1 [PP0800] ([NMeL]I[Sar][Aze][NPrPhe(4-CF3)][Sar][hPhe(3,5-F2-4-CF3)]P[αMeS](tBu)[NMeGly(cPent)][NMeD]-Morpholide; lactam N-11)",186 nM,B (a compound having 3 or more and less than 10 is denoted as B),C (A compound having a KD ratio of 0.1 or more and less than 3 is denoted as C),
CC[C@H](C)[C@@H]1NC(=O)[C@H](CC(C)C)N(C)C(=O)C[C@@H](C(=O)N2CCOCC2)N(C)C(=O)[C@H](C2CCCC2)N(C)C(=O)C2(CCCC2)NC(=O)[C@@H]2CCCN2C(=O)[C@H](CCc2ccc(C(F)(F)F)c(Cl)c2)NC(=O)CN(C)C(=O)[C@H](Cc2ccc(C)cc2)N(CC2CC2)C(=O)CN(C)C(=O)CN(C)C1=O [PP0064] ([NMeL]I[Sar][Sar][X49][Sar][hPhe(3-Cl-4-CF3)]P[Ac5c][NMeGly(cPent)][NMeD]-Morpholide; lactam N-11),9.9 nM,C (A compound having a KD ratio of 0.1 or more and less than 3 is denoted as C),C (A compound having a KD ratio of 0.1 or more and less than 3 is denoted as C),
CCO[C@@H]1C[C@H]2C(=O)NC3(CC(F)(F)C3)C(=O)N(C)[C@@H](C3CCCC3)C(=O)N(C)C(C(C)C)CC(=O)N(C)[C@@H](CC3CC3)C(=O)N[C@@H]([C@@H](C)CC)C(=O)N(C)CC(=O)N(C)[C@H]3C/C=C\CCN(C3=O)[C@@H](Cc3ccc(C(F)(F)F)cc3)C(=O)N(C)CC(=O)N[C@@H](CCc3cc(F)c(C(F)(F)F)c(F)c3)C(=O)N2C1 (stereo partly drawn) [PP1598],36.6 nM,,,HRAS /KRAS (HRAS wild-type protein; ratio of KD value for HRAS wild-type protein to KD value for KRAS (SPR)): A (a compound having 10 or more and less than 20 is denoted as A); NRAS /KRAS ([2]; ratio of KD value for GDP-bound NRAS wild-type protein to KD value for KRAS (SPR)): A (a compound having 10 or more and less than 20 is denoted as A)
CCO[C@@H]1C[C@H]2C(=O)NC3(CCC3)C(=O)N(C)[C@@H](C3CCCC3)C(=O)N(C)[C@H](C(=O)N3CCOCC3)CC(=O)N(C)[C@@H](CC(C)C)C(=O)N[C@@H]([C@@H](C)CC)C(=O)N(C)CC(=O)N(C)[C@H]3CC/C=C(/C)CN(C3=O)[C@@H](Cc3ccc(C(F)(F)F)cc3)C(=O)N(C)CC(=O)N[C@@H](CCc3cc(F)c(C(F)(F)F)c(F)c3)C(=O)N2C1 [PP1333],980 nM,,,"HRAS /KRAS (HRAS wild-type protein; [7]): B (a compound having 3 or more and less than 10 is denoted as B); NRAS /KRAS [2, 8]: C (A compound having a KD ratio of 0.1 or more and less than 3 is denoted as C)"
